In one experiment the target is T1, PLK1 kinase domain (Homo sapiens, UniProt P53350).
T1 construct: made in house; host or cells: baculovirus-infected T. ni insect cells
Nature of the experiment: Assay for Inhibition of PLK1 (SPA enzyme activity). The class given is biochemical. Conditions: 2 μM ATP, read-out: Ave pIC50 PLK Enzyme Inhibition (converted).

Experiment [1] concerns lung (H460) tumor cell line. As to the kind of experiment: Methylene Blue Growth Inhibition Assay, H460. The class given is cell-based. Conditions: Homo sapiens, NCI-H460, 72 h; Cell Line H460, 3 days; read-out: MeB IC50. The procedure, abridged: (§1)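 Growth inhibition is measured as methylene blue-stained biomass (OD 620 nm) after 3 days of compound treatment, relative to vehicle controls. Cells grow in high-glucose DMEM with 10% FBS and 0.3% final DMSO; IC50 comes from nonlinear regression.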

Experiment [2] relates to colon (HCT116) tumor cell line. Nature of the experiment: Methylene Blue Growth Inhibition Assay, HCT116. The class given is cell-based. Conditions: Homo sapiens, HCT-116, 72 h; Cell Line HCT116, 3 days; read-out: MeB IC50. The procedure, abridged: as §1
The test system of experiment [3] is Normal Human foreskin fibroblasts (HFF). Nature of the experiment: Methylene Blue Growth Inhibition Assay, HFF. The class given is cell-based. Conditions: 72 h, Cell Line HFF, 3 days, read-out: MeB IC50. Put shortly: as §1
The subject of experiment [4] is breast tumor (MCF7) cell line. Nature of the experiment: Methylene Blue Growth Inhibition Assay, MCF7. It is filed as cell-based. The settings on record: Homo sapiens, 72 h; Cell Line MCF7, 3 days; read-out: MeB IC50. The procedure, abridged:
as §1

In experiment [5] the test system is prostate (PC3) tumor cell line. As to the kind of experiment: Methylene Blue Growth Inhibition Assay, PC3. The class given is cell-based. Conditions: Homo sapiens, 72 h; Cell Line PC3, 3 days; read-out: MeB IC50. The procedure, abridged: as §1
Experiment [6] has as its system colon (RKO) tumor cell line. Nature of the experiment: Methylene Blue Growth Inhibition Assay, RKO. The class given is cell-based. The settings on record: Homo sapiens, 72 h, 3 days, read-out: MeB IC50. The procedure, abridged: as §1
The next experiment relates to A549. Nature of the experiment: Methylene Blue Growth Inhibition Assay, A549. The class given is cell-based. Conditions: Homo sapiens; Cell Line A549; read-out: MeB IC50.

Molecules are shown by their SMILES.

T1 sequence (P53350 21-346): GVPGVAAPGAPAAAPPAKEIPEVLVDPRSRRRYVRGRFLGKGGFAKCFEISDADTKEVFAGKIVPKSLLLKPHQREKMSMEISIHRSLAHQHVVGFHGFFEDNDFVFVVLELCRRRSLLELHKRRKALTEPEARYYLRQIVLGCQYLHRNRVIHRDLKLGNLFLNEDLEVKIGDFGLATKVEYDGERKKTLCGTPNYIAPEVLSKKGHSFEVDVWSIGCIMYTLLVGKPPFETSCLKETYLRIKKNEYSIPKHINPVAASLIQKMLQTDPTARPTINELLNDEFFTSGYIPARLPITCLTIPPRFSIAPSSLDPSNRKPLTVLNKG

On to `COc1cc2ncn(-c3cc(OCc4cc5c(cc4Cl)OCO5)c(C(N)=O)s3)c2cc1OC` [Example 91, 3-[(6-Chloro-1,3-dibenzodioxol-5-yl)methoxy]-5-(5,6-dimethoxy-1H-benzimidazol-1-yl)thiophene-2-carboxamide], for which the IC50 at PLK1 kinase domain is less than 100 nM; in experiment [1] it was less than 1000 nM; in experiment [2], less than 1000 nM; in experiment [3] it was greater than 10000 nM; in experiment [4], less than 1000 nM; in experiment [5], 1000 to 10000 nM. The IC50 (in experiment [6]; in the experiment with A549) was less than 1000 nM in each case.
Turning to `COc1cc2ncn(-c3cc(OCc4ccccc4OC(F)F)c(C(N)=O)s3)c2cc1OC` [Example 108, 3-{[2-(Difluoromethoxy)benzyl]oxy}-5-(5,6-dimethoxy-1H-benzimidazol-1-yl)thiophene-2-carboxamide], the IC50 was less than 100 nM on PLK1 kinase domain; less than 1000 nM in experiment [1]; less than 1000 nM in experiment [2]; greater than 10000 nM in experiment [3]; less than 1000 nM in experiment [4]; greater than 10000 nM in experiment [5]. Further, the IC50 (in experiment [6]; in the experiment with A549) was less than 1000 nM in each case.
With `COc1cc2ncn(-c3cc(OC(C)c4ccccc4C(F)(F)F)c(C(N)=O)s3)c2cc1OC` (stereo not drawn) [Example 127], the IC50 on PLK1 kinase domain was less than 100 nM; in experiment [1], less than 1000 nM; in experiment [2], less than 1000 nM; in experiment [3], 1000 to 10000 nM; in experiment [4], less than 1000 nM; in experiment [5] it was 1000 to 10000 nM. Besides, the IC50 (in experiment [6]; in the experiment with A549) was less than 1000 nM each time.

Source of the values: US20080269298A1, “Benzimidazol-1-YL-thiophene compounds for the treatment of cancer” (priority 2002, published 2008).
